In PubChem BioAssay AID504388 (Southern Research Specialized Biocontainment Screening …, 2011) one finds CC50 data, which are given here for 49 compounds.

Active and inactive are the calls of the source. No rule for the calls is given here. Some results are limits rather than exact numbers.

This assay relates to host cell cytotoxicity, % cell control, HIV fusion counter-screen. Nature of the assay: cytotoxicity of HIV-1 entry inhibitor leads – cell-based, cytotoxicity control for CCR5-tropic HIV-1 fusion inhibitors, dose response (AID 504388).
Turning to `Cc1c2c(=O)n(-c3nc4ccccc4s3)nc-2cc(O)n1Cc1ccc(F)cc1`, the CC50 is 38.5 µM. With `Cc1ccc(-n2cccc2/C=C2/C(=N)N3C(=NC2=O)SN=C3S(C)(=O)=O)cc1C` the figure was 32.7 µM; with `COc1ccc(CCn2c(O)cc3nn(-c4nc5ccccc5s4)c(=O)c-3c2C)cc1`, 36.4 µM. With `COc1ccccc1NS(=O)(=O)c1ccc2c(c1)C1C=CCC1C(c1ccc(C(=O)O)cc1)N2` (centres undefined) the figure was 70.9 µM. `CCc1ccc(-c2ccc(/C=C3\SC(=S)N(CCCC(=O)O)C3=O)o2)cc1`: the CC50 was > 100 µM (inactive). As for `COc1ccc(-c2ccc(/C=C3\SC(=S)N(CCCC(=O)O)C3=O)o2)cc1`, the CC50 is 78.6 µM. Regarding `Cc1c2c(=O)n(-c3nc4ccccc4s3)nc-2cc(O)n1Cc1cccnc1`, the CC50 was 7.3 µM. As for `O=C(O)CCCN1C(=O)/C(=C\c2ccc(-c3ccc(F)cc3)o2)SC1=S`, the CC50 was 88.2 µM. Turning to `Cc1ccc(-n2cccc2/C=C2/C(=N)N3C(=NC2=O)SN=C3S(C)(=O)=O)cc1`, the CC50 was 39.5 µM. For `O=C(O)CCCN1C(=O)/C(=C\c2ccc(-c3ccc(Cl)cc3)o2)SC1=S`, the cytotoxic concentration (CC50) was 37.5 µM.

As to `Cc1c2c(=O)n(-c3nc4ccccc4s3)nc-2cc(O)n1CCc1cccs1`, the CC50 is > 100 µM (inactive). As for `O=C(O)CCCN1C(=O)/C(=C/c2ccc(-c3ccc(Cl)c(Cl)c3)o2)SC1=S`, the CC50 is 18.3 µM.

For `O=C(O)CCCN1C(=O)/C(=C\c2ccc(-c3ccc(Br)cc3)o2)SC1=S`, the CC50 was 7.36 µM. The value for `Cc1c2c(=O)n(-c3nc4ccccc4s3)nc-2cc(O)n1CCC(C)C` was 36.5 µM; that for `CS(=O)(=O)C1=NSC2=NC(=O)/C(=C\c3cccn3-c3cccc(C(F)(F)F)c3)C(=N)N21` was 53.9 µM.

For `CCOC(=O)C1=C(C)N=c2s/c(=C\c3ccc(OCC(=O)O)cc3)c(=O)n2C1c1ccc(OC)c(OCC)c1` (centres undefined), the CC50 was 71.9 µM.

As for `Nc1sc2ccccc2[n+]1Cc1ccc(C(=O)O)cc1`, the CC50 was > 100 µM (inactive). For the compound `CS(=O)(=O)C1=NSC2=NC(=O)/C(=C\c3cccn3-c3ccc(Cl)c(Cl)c3)C(=N)N21`, the CC50 was 39.4 µM. Turning to `CS(=O)(=O)C1=NSC2=NC(=O)/C(=C\c3cccn3-c3cc(Cl)cc(Cl)c3)C(=N)N21`, the CC50 is 51.9 µM. For `O=C(O)c1ccc(C[n+]2c(-c3ccccc3)csc2Nc2ccccc2)cc1`, the CC50 is 75.2 µM.

Turning to `CS(=O)(=O)C1=NSC2=NC(=O)/C(=C\c3cccn3-c3ccc(Br)cc3)C(=N)N21`, the half-maximal cytotoxic concentration (CC50) is 36.9 µM.

In the case of `CC1=C(C(=O)OC(C)C)C(c2ccc(Cl)cc2)n2c(s/c(=C\c3ccc(OCC(=O)O)cc3)c2=O)=N1` (centres undefined), the CC50 is > 100 µM (inactive). With `CS(=O)(=O)C1=NSC2=NC(=O)/C(=C\c3cccn3-c3cccc(Cl)c3)C(=N)N21`, the CC50 was 36.5 µM. Consider `CS(=O)(=O)C1=NSC2=NC(=O)/C(=C\c3cccn3-c3cccc(F)c3)C(=N)N21`, for which the CC50 was 48.5 µM.

For `Cc1c2c(=O)n(-c3nc4ccccc4s3)nc-2cc(O)n1Cc1ccncc1`, the CC50 was 5.17 µM. The value for `CCc1ccc(-n2cccc2/C=C2/C(=N)N3C(=NC2=O)SN=C3S(C)(=O)=O)cc1` was 30.7 µM; that for `COc1cccc(C2C(C(=O)Nc3ccccc3)=C(C)N=c3sc(=Cc4ccc(OCC(=O)O)cc4)c(=O)n32)c1` (centres undefined) was > 100 µM (inactive).

For the compound `CCOC(=O)C1=C(C)N=c2s/c(=C\c3ccc(OCC(=O)O)cc3)c(=O)n2C1c1ccc(Cl)cc1` (centres undefined), the CC50 is 38.3 µM. As to `CS(=O)(=O)C1=NSC2=NC(=O)/C(=C\c3cccn3-c3ccc(F)cc3)C(=N)N21`, the CC50 is 36.3 µM.

As for `COc1ccc(Cn2c(O)cc3nn(-c4nc5ccccc5s4)c(=O)c-3c2C)cc1`, the CC50 is 39.4 µM. Take `Cc1c2c(=O)n(-c3nc4ccccc4s3)nc-2cc(O)n1C1CC1`: the CC50 was 6 µM. On to `O=C(O)c1ccc([C@@H]2Nc3ccc(S(=O)(=O)Nc4cccc5ccccc45)cc3[C@@H]3C=CC[C@@H]32)cc1`, for which the CC50 was 68.9 µM. On to `CCOC(=O)C1=C(c2ccccc2)N=c2s/c(=C\c3ccc(OCC(=O)O)cc3)c(=O)n2C1c1cccc(OC)c1` (centres undefined), for which the CC50 is 51.5 µM. Turning to `CS(=O)(=O)C1=NSC2=NC(=O)/C(=C\c3cccn3-c3ccc(Cl)cc3)C(=N)N21`, the CC50 was 39.7 µM. `CCOC(=O)C1=C(C)N=c2sc(=Cc3ccc(OCC(=O)O)cc3)c(=O)n2C1c1ccc(F)cc1` (centres undefined): the 50% cytotoxic concentration (CC50) is 63 µM.

As to `Cc1c2c(=O)n(-c3nc4ccccc4s3)nc-2cc(O)n1Cc1ccccc1Cl`, the CC50 was 23.5 µM. The value for `O=C(O)c1ccc(C[n+]2c(-c3ccc([N+](=O)[O-])cc3)csc2Nc2ccccc2)cc1` was > 100 µM (inactive). With `O=C(O)CCCN1C(=O)/C(=C\c2ccc(-c3cccc(Cl)c3)o2)SC1=S`, the CC50 is 51.1 µM.

In the case of `COc1ccccc1Cn1c(O)cc2nn(-c3nc4ccccc4s3)c(=O)c-2c1C`, the CC50 is 36.6 µM. The value for `CCOC(=O)C1=C(C)N=c2sc(=Cc3ccc(OCC(=O)O)cc3)c(=O)n2C1c1ccc(OC)cc1OC` (centres undefined) was 55.8 µM; that for `O=C(O)CCC(C(=O)O)N1C(=O)/C(=C\c2ccco2)SC1=S` (centres undefined) was > 100 µM (inactive).

On to `Cc1c2c(=O)n(-c3nc4ccccc4s3)nc-2cc(O)n1Cc1cccs1`, for which the CC50 is 42.5 µM.

Consider `O=C(O)c1ccc(C2Nc3ccc(S(=O)(=O)Nc4cc(Cl)ccc4Cl)cc3C3C=CCC32)cc1` (centres undefined), for which the CC50 was 85.6 µM. Take `COc1ccc(-n2cccc2/C=C2/C(=N)N3C(=NC2=O)SN=C3S(C)(=O)=O)cc1Cl`: the CC50 is 96 µM. The value for `COc1cccc(-n2cccc2/C=C2/C(=N)N3C(=NC2=O)SN=C3S(C)(=O)=O)c1` was > 100 µM (inactive); that for `Cc1c2c(=O)n(-c3nc4ccccc4s3)nc-2cc(O)n1CCc1ccc(O)cc1` was 27.2 µM; that for `CCOC(=O)C1=C(C)N=c2sc(=Cc3ccc(OCC(=O)O)cc3)c(=O)n2C1c1ccccc1` (centres undefined) was 62.2 µM. Take `O=C(O)CCCN1C(=O)/C(=C/c2ccc(-c3cccc(C(F)(F)F)c3)o2)SC1=S`: the cytotoxic concentration (CC50) was 92.8 µM. As for `CCOc1ccc(-n2cccc2/C=C2/C(=N)N3C(=NC2=O)SN=C3S(C)(=O)=O)cc1`, the CC50 is 40.2 µM.

By CC50 is commonly meant the concentration that lowers cell viability or growth by half.
